One data set relates to Male Sprague Dawley rats. Put plainly: Novelty Suppressed Feeding Test (NSFT) with home cage feeding control. To be noted: Example I; Ket 10 mg/kg i.p. on alternate days (day 0, 2, 4, 6); day 9. Type of data set: in vivo, rat. The protocol: Behavioral Analysis Using the Novelty Suppressed Feeding Test (NSFT): The NSFT was conducted as previously described (Warner-Schmidt, J. L. & Duman, R. S. PNAS 104(11): 4647-52 (2007)). Rats were fasted in their home cages for 20 hr and then placed in a Plexiglas open field (76.5 cm×76.5 cm×40 cm) with a small amount of food in the center. Animals were allowed to explore the open field for 8 min and the latency to feed (s) was recorded.
Chronic Unpredictable Stress (CUS) Conditions: Rats were exposed to a variable sequence of 12 unpredictable stressors, preventing habituation as described (Li, N. et al., Biol Psychiatry 69(8): 754-61 (2011)). The following twelve stressors were applied (2 per day, for 25 days): cage rotation, light on, light off, cold stress, isolation, swim stress, food and water deprivation, wet bedding, stroboscope, cage tilt, odor exposure and group housing. The animals in non-stressed (NS) groups were housed normally without the application of external stressors. Both NS and CUS rats were handled and weighed weekly.
Study Design. Thirty-two (32) male Sprague Dawley Male rats weighing between 175 and 200 g were randomized into 4 study groups (n=8/treatment group), following a 5-day acclimation period. On study day 0, rats received a single dose of either saline (Sal) or ketamine (Ket) in Groups 1 and 2, respectively, by intraperitoneal injection (i.p.). The rats in Group 3 and 4 received a single dose of the NV-5138 vehicle (Veh, 0.5% Methylcellulose/0.1% Tween-80) or NV-5138 (160 mg/kg), respectively, by oral gavage. All rats were subjected to the FUST on day 1, 24 hrs after dosing. On day 2, 48 hrs after dosing, the LMA of all rats was measured in an open field. Rats were then fasted for 20 hrs and subjected to the NSFT, 72 hrs post-dose.
Study Design: Fifty-six (56) male rats weighing between 175 and 200 g were randomized into 4 study groups (n=14/group), following a 5-day acclimation period. On study day minus 20, two groups of rats were subjected to CUS for 25 days and two groups of rats were housed normally serving as the NS group. On the day 21 of the CUS protocol, rats received a single dose of either Veh or NV-5138 (160 mg/kg) by oral gavage (day 0). The SPT and NSFT were performed 24 and 48 hrs post-administration (days 1 and 2), respectively. Upon completion of the behavioral tests, after 25 days of the CUS protocol a second dose of NV-5138 or Veh was administered on day 5 and rats were sacrificed 24 hrs later by conscious decapitation. Crude synaptosomes were prepared from the PFC and the synaptic proteins, GluR1 and PSD95 were quantitated by WB.
Study Design. Twenty (20) male rats weighing between 175 and 200 g were randomized into 3 study groups (n=6-7/group), following a 5-day acclimation period. All rats were surgically implanted with bilateral IT cannulas in the PFC 2 weeks prior to dosing. […] Thirty minutes following the intrathecal infusions, either NV-5138 vehicle (Veh-NV, 0.5% methylcellulose/0.1% Tween-80) or NV-5138 (160 mg/kg) was administered by oral gavage. Each treatment group was assessed at the designated time following oral dosing in FST 24 hrs (day 1) LMA 48 hrs (day 2) and the NSFT 72 hrs (day 3 following a 20 hr period of fasting). LMA was measured to rule out overall changes in generally locomotor activity. The study design is presented in Table 11 with timeline of surgical procedures, test article administration and behavioral tests is provided in FIG. 20
Study Design. Forty-eight (48) male rats weighing between 175 and 200 g were randomized into 6 study groups (n=8/group), following a 5-day acclimation period. A single dose of all test articles was administered on day 0 and the behavioral tests were performed 3, 7 and 10 days later. Groups 1 and 2 were dosed on day 0 with NV-5138 (160 mg/kg by oral gavage) and Ket (10 mg/kg by i.p. injection), respectively and subjected to a FST on day 3. […]

Data set [1] concerns marmosets (Callithrix jacchus). Put plainly: Marmoset Human Threat Test (HTT). To be noted: Example J, ketamine 0.3 mg/kg i.m. Type of data set: in vivo. The source says:
Marmoset Human Threat Test (HTT): Marmosets were challenged by the presence of a human observer over a long period of time on a regular basis. Such chronic stimulation is known to increase plasma cortisol and the subsequent increase in hypothalamic-pituitary-adrenal function contributed to the pathophysiology of depressive illness.
Study Design: Thirty-six (36) marmosets (Callithrix jacchus) were paired and divided randomly divided into treatment groups. Twenty-four hours before the Human Threat Test (HTT) animals were treated with vehicle, ketamine (0.3 mg/kg; i.m.) or NV-5138 (160 mg/kg; p.o.). The following day, the same animals were treated with either vehicle (s.c.) or chloriazepoxide (1 mg/kg; s.c.). The animals were then monitored for the number of threat postures over a two (2) minutes period with the presence of a human observer. Locomotor activity was monitored over the same period, as measured by the number of jumps observed.

In a further data set the target is T1, Sestrin2 (Homo sapiens, UniProt P58004).
T1 sequence (P58004 1-480): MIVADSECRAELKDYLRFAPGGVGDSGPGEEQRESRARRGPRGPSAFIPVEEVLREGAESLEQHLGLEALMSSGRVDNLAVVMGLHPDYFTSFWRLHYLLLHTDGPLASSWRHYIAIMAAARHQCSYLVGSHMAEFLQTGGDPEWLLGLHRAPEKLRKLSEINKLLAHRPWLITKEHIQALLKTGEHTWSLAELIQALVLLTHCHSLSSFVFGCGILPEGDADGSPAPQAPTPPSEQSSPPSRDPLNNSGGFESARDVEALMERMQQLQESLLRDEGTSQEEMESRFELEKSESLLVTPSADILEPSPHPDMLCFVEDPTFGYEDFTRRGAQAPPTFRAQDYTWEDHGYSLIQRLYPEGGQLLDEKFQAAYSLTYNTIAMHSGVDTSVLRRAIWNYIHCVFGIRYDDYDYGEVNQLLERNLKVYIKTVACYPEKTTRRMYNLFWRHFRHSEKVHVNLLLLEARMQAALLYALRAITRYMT
Put plainly: Indirect ligand binding assay (ILBA, Method 7), immunoprecipitation with CST anti-Sestrin2 antibody. Details: endogenous in cells; host or cells: unnamed human cell line (crude lysate after 1 h amino acid starvation). To be noted: crude lysate of amino acid-starved human cell line; 1 hour incubation. The protocol:
Conversely, compounds that destabilized Sestrin2 as measured by thermal shift assay increased the affinity of the CST antibody for non-denatured Sestrin2. […] In one version, the assay was performed with crude lysate generated from a human cell line after a 1-hour period of amino acid starvation (cells are lysed in 1% Triton, 10 mM beta-glycerol phosphate, 10 mM sodium pyrophosphate, 40 mM HEPES [pH 7.4], 150 mM NaCl and 2.5 mM MgCl2). […] After compound incubation, samples were subjected to immunoprecipitation with the CST anti-Sestrin2 antibody for 1.5 hours followed by a 30-minute incubation with protein-A sepharose as described in L. Chantranupong, et al., Cell Reports 9:1-8 (2014). The sepharose conjugated antibody-protein complex was precipitated via centrifugation and the flow-through was subjected to a second round of immunoprecipitation with a rabbit polyclonal anti-Sestrin2 antibody (Protein Tech, #10795-1-AP) to determine that total Sestrin2 protein levels between samples were equal. SDS-PAGE was performed with the immunoprecipitation samples followed by western-blot with the mouse monoclonal anti-Sestrin2 antibody from SIGMA (cat #WH0083667M3). […] This version of the assay also measured increased instability of Sestrin2 induced by incubation with compounds.

The subject of data set [2] is point mutant form of Sestrin2 unable to bind leucine. Put plainly: ILBA with Flag-tagged point mutant Sestrin2. Type of data set: binding, human.
Procedure: This assay was also performed in cultured human cells over-expressing Sestrin2 N-terminally fused to a Flag tag. In this version of the assay, the procedure remained the same, but immunoblotting was performed with a mouse anti-Flag antibody (#F3165, SIGMA).

In the case of `CNC1(c2ccccc2Cl)CCCCC1=O` (centres unmarked) [Ketamine, reference compound], the NSFT entry in the data set with Male Sprague Dawley rats is “significant effects”. For the same compound, in data set [1] (half of the animals (6 out of the 12 dosed)), the “animals that developed mild emesis” value is 6 animals. Also, the “HTT, number of threat postures” value in data set [1] (twenty-four hours after acute administration) is given as “induces an anxiolytic/antidepressant-like profile”.
As for `CC(C)C[C@H](N)C(=O)O` [leucine], the “decrease in intensity of the Sestrin2 band (immunoprecipitated with CST anti-Sestrin2 antibody)” value on Sestrin2 is not below 50%. Also, the “decrease in affinity of the CST antibody upon ligand binding” value in data set [2] is recorded as “not observed”.

For the origin of these results see patent publication US20210228523A1, “MODULATORS OF SESTRIN-GATOR2 INTERACTION AND USES THEREOF” (Navitor Pharmaceuticals, Inc., priority 2017, published 2021).
